Patent US12102705B2, “Peptides having inhibitory activity on muscarinic receptor M3” (AZIENDE CHIMICHE RIUNITE ANGELINI FRANCESCO—A.C.R.A.F. …, priority 2018, dated 2024)
pIC50: −log10 of the molar value. Where a name gives a salt, the structure may show the parent alone. Peptide text beside a SMILES is read from it. * marks the point of attachment. Palmitoyl = CCCCCCCCCCCCCCCC(=O)*; Myristoyl = CCCCCCCCCCCCCC(=O)*

Key:
Type in all cases: cell-based
[1] = biological target: T1, human muscarinic receptor M3 (Homo sapiens, UniProt P20309); assay: Dose-response inhibitory effect on M3 activity (IC50)
T1 construct: expressed in transfected cells; cultured in Ham's F-12 medium
T1 sequence (P20309 whole entry): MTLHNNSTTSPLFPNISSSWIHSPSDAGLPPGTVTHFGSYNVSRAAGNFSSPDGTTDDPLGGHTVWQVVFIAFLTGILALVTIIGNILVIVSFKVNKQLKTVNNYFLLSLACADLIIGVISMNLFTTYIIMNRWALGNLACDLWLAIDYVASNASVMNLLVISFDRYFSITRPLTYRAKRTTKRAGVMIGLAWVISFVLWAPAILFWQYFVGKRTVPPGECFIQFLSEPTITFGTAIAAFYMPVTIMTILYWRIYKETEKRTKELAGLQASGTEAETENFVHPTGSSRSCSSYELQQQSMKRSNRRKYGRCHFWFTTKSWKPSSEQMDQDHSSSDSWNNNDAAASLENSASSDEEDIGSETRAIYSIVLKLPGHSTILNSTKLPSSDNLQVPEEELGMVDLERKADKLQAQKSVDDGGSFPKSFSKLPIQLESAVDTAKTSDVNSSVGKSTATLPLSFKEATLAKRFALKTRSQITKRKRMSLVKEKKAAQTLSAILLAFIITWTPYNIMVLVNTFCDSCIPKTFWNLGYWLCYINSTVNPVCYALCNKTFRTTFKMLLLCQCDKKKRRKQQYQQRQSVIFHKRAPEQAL
Method: (§1) Epithelial stable cell line constitutively expressing human muscarinic receptor M3 was used to assess peptides activity. Cells were seeded in 96-well plates at 50% cell confluence in 100 μL of complete Ham's F-12 medium. After 24 hours, medium was removed and cells were incubated with 90 μL/well of a solution of the peptides of the invention at 100, 50 or 10 μM or DMSO as vehicle. Peptides were dissolved in Fluo-4 NW (Invitrogen) fluorescent calcium probe assay buffer containing Probenecid, following manufacturer's instructions for 50 min at 37° C. in a CO2 incubator. Afterwards, M3 activity was determined by reading the fluorescence in a FLUOstar Galaxy reader (BMG LabTechnologies) using 485 nm filter for excitation and 520 nm for emission, recording signal before and after M3 activation with 10 nM acetylcholine. Fluorescence measurements were normalized to acetylcholine maximum fluorescence signal in vehicle treated cells. Atropine (100 nM) was used as positive control for inhibition. Inhibition values of M3 activity were calculated as percentages by considering maximum fluorescence corresponding to acetylcholine-M3 activation and minimum as non-stimulated cells. Table D details inhibition values of M3 activity inhibition obtained for the peptides of invention.
Characterization of Seq. ID No. 1, 3-8 peptides efficiency was obtained by calculating half maximal inhibitory concentration (IC50). For this purpose, experimental procedure regarding cell culture and fluorescent calcium probe assay was followed as described on Example 2. Peptides were assessed at concentrations between 0.1 and 100 μM and incubated for 1 hour together with Fluo-4 NW probe. Afterwards, M3 activity was determined by reading the fluorescence in a FLUOstar Galaxy reader (BMG LabTechnologies) using 485 nm filter for excitation and 520 nm for emission, recording signal before and after M3 activation with acetylcholine. Fluorescence measurements were standardized with regard to the maximum fluorescence signal detected with acetylcholine stimulation in vehicle treated cells. Inhibition values of M3 activity were calculated as percentages by considering maximum fluorescence corresponding to acetylcholine-M3 activation and minimum as non-stimulated cells. Percentage inhibition data was fitted to a sigmoidal curve to obtain IC50. Table F details inhibition values for IC50

[2] = biological target: T1, human muscarinic receptor M3; assay: Inhibition of M3-acetylcholine activation, Fluo-4 NW calcium fluorescence; conditions: 50 min incubation, 10 nM acetylcholine; for inhibition at 10 µM / inhibition at 50 µM / inhibition at 100 µM: 50 min
Method: as §1

[3] = biological target: T1, human muscarinic receptor M3; assay: Time-dependent inhibition of M3 activity, Fluo-4 NW calcium fluorescence; conditions: peptide 50 μM, read-out: % Inhibition hM3 receptor activity
Method: Peptides of invention were designed to target the intracellular region of M3. Therefore, minimum time required to detect inhibitory effect on M3 activity was evaluated. For this purpose, inhibitory effect of peptides Seq. […] Epithelial stable cell line constitutively expressing human muscarinic receptor M3 was used to assess peptides activity. Cells were seeded in 96-well plates at 50% cell confluence in 100 μL of complete Ham's F-12 medium. After 24 hours, medium was removed and cells were incubated with 90 μL/well of Fluo-4 NW (Invitrogen) fluorescent calcium probe assay buffer containing probenecid, following manufacturer's instructions at 37° C. in a CO2 incubator. Peptides (50 μM), vehicle and atropine were incubated either with the probe (1 hour pre-incubation) or during fluorescence reading (direct effect). Afterwards, M3 activity was recorded for 20 cycles and direct effect peptides were added on cycle 3 after baseline assessment. Acetylcholine was added on cycle 13. Therefore, direct effect of peptides was monitored for 25 minutes. Inhibition values of M3 activity were calculated as percentages by considering maximum fluorescence corresponding to vehicle or non-treated cells acetylcholine-M3 activation and minimum as non-stimulated cells. Table E details inhibition values of M3 activity inhibition obtained for the peptides of invention.

[4] = tested on: human epidermal keratinocytes (HEKa); assay: MTT cell viability assay in keratinocytes; conditions: as TFA-salt, any concentration assessed; keratinocytes and fibroblasts
Method: This example evaluated the effects of the tested peptides on human epidermal keratinocytes and dermal fibroblasts cell viability. The 3-(4,5-dimethyl-2-thiazolyl)-2,5-diphenyl-2H-tetrazolium bromide (MTT) assay was used to that monitor cell proliferation and viability based on the capacity of the mitochondrial dehydrogenase enzyme to break and transform the tetrazolium rings of MTT.
Epidermal keratinocytes were seeded in a previously coated 96 well-plate at 50-60% confluence in 100 μL of supplemented medium. Dermal fibroblasts were seeded in a 96 well-plate at 70% confluence in 100 μL supplemented medium. 24 hours after seeding, medium was replaced by fresh supplemented medium containing peptides dissolved at concentration range between 0.1 and 100 μM or SDS as reference of 100% toxicity or DMSO as vehicle for peptides. All test substances were incubated for 24 hours at 37° C. and 5% CO2. Afterwards, medium was replaced by 0.5 mg/mL of MTT solution for 4 h in complete medium. Then, medium was carefully removed and 150 μL/well of DMSO were added to solubilize formazan crystals. Plate was protected from light, shaken for 60 seconds and optical density was measured at 570 nm with a reference filter of 620 nm. Toxicity values were calculated as percentages by considering maximum cytotoxic effect to SDS-treated cells and minimum as non-treated cells. Table G details effects of Seq. ID No 1, 5, 6 and 7 peptides on keratinocytes and fibroblasts as percentage of cell viability inhibition.

[5] = 25 min, 25 minutes (direct effect)
[6] = 60 minutes (1 hour pre-incubation)

Molecule	pIC50 [1]	inhibition at 10 µM ([2]; peptide 10 μM) [%]	inhibition at 50 µM ([2]; peptide 50 μM) [%]	inhibition at 100 µM ([2]; peptide 100 μM) [%]	inhibition at 50 µM [3, 5] [%]	inhibition at 50 µM [3, 6] [%]	% M3 inhibition ([2]; peptide 10 μM) [%]	further results
CCCCCCCCCCCCCCCC(=O)N[C@@H](Cc1c[nH]c2ccccc12)C(=O)N[C@@H](CCSC)C(=O)N[C@@H](CCCNC(=N)N)C(=O)N[C@@H](CC(C)C)C(N)=O [Seq. ID No. 1 Palmitoyl] (Palmitoyl-WMRL-NH2)	4.42	15.4	70.9	95.6	25.1	69.5		
Ac-RMYKMMAGMYLR-NH2 [Seq. ID No. 6 Acetyl (TFA salt)]								effect on cell proliferation [4]: did not affect cell proliferation
CCCCCCCCCCCCCCCC(=O)N[C@@H](Cc1c[nH]c2ccccc12)C(=O)N[C@@H](CCSC)C(=O)N[C@@H](Cc1ccccc1)C(=O)N[C@@H](CC(C)C)C(=O)N[C@@H](CCCCN)C(N)=O [Seq. ID No. 5 Palmitoyl] (Palmitoyl-WMFLK-NH2)	4.21	0	45.7	80.6	-7.1	84.4		
CCCCCCCCCCCCCCCC(=O)N[C@@H](Cc1c[nH]c2ccccc12)C(=O)N[C@@H](CCSC)C(=O)N[C@@H](CCCNC(=N)N)C(=O)N[C@@H](CC(C)C)C(=O)N[C@@H](CCCCN)C(=O)N[C@@H](C)C(N)=O [Seq. ID No. 3 Palmitoyl] (Palmitoyl-WMRLKA-NH2)	4.90	41	73.7	75.7	16.4	73		
Seq. ID No. 2 Acetyl: Nt-acetyl WMRLK, C terminus amidated (Ac-WMRLK-NH2)							0.0	% M3 inhibition ([2]; peptide 50 μM): 9.1%; % M3 inhibition ([2]; peptide 100 μM): 24.6%
Seq. ID No. 7 Acetyl: Nt-acetyl RVMYKMNKRDY, C terminus amidated (Ac-RVMYKMNKRDY-NH2)							8.6	% M3 inhibition ([2]; peptide 50 μM): 8.3%; % M3 inhibition ([2]; peptide 100 μM): 20.6%
Seq. ID No. 8 Palmitoyl: Nt-palmitoyl RVMFKMFKRDY, C terminus amidated (Palmitoyl-RVMFKMFKRDY-NH2)							32.7	
Seq. ID No. 7 Palmitoyl: Nt-palmitoyl RVMYKMNKRDY, C terminus amidated (Palmitoyl-RVMYKMNKRDY-NH2)							47.4	
Ac-RVMYKMNKRDY-NH2 [Seq. ID No. 7 Acetyl (TFA salt)]								effect on cell proliferation [4]: did not affect cell proliferation
CCCCCCCCCCCCCCCC(=O)N[C@@H](Cc1c[nH]c2ccccc12)C(=O)N[C@@H](CCSC)C(=O)N[C@@H](CC(N)=O)C(=O)N[C@@H](CC(C)C)C(=O)N[C@@H](CCCCN)C(=O)N[C@H](C(N)=O)[C@@H](C)O [Seq. ID No. 4 Palmitoyl] (Palmitoyl-WMNLKT-NH2)	5.10	35.3	59.6	60.6	11.5	69.1		
CCCCCCCCCCCCCC(=O)N[C@@H](CCCNC(=N)N)C(=O)N[C@H](C(=O)N[C@@H](CCSC)C(=O)N[C@@H](Cc1ccc(O)cc1)C(=O)N[C@@H](CCCCN)C(=O)N[C@@H](CCSC)C(=O)N[C@@H](CC(N)=O)C(=O)N[C@@H](CCCCN)C(=O)N[C@@H](CCCNC(=N)N)C(=O)N[C@@H](CC(=O)O)C(=O)N[C@@H](Cc1ccc(O)cc1)C(N)=O)C(C)C [Seq. ID No. 7 Myristoyl] (Myristoyl-RVMYKMNKRDY-NH2)	4.26	15.9	54.8	92.4	16.4	82.7		
Seq. ID No. 8 Acetyl: Nt-acetyl RVMFKMFKRDY, C terminus amidated (Ac-RVMFKMFKRDY-NH2)							21.5	% M3 inhibition ([2]; peptide 50 μM): 12.4%; % M3 inhibition ([2]; peptide 100 μM): 26.1%
CCCCCCCCCCCCCC(=O)N[C@@H](CCCNC(=N)N)C(=O)N[C@H](C(=O)N[C@@H](CCSC)C(=O)N[C@@H](Cc1ccccc1)C(=O)N[C@@H](CCCCN)C(=O)N[C@@H](CCSC)C(=O)N[C@@H](Cc1ccccc1)C(=O)N[C@@H](CCCCN)C(=O)N[C@@H](CCCNC(=N)N)C(=O)N[C@@H](CC(=O)O)C(=O)N[C@@H](Cc1ccc(O)cc1)C(N)=O)C(C)C [Seq. ID No. 8 Myristoyl] (Myristoyl-RVMFKMFKRDY-NH2)	5.01	42.5	71.7	93.8	6.1	87.1		
Seq. ID No. 5 Acetyl: Nt-acetyl WMFLK, C terminus amidated (Ac-WMFLK-NH2)							3.9	% M3 inhibition ([2]; peptide 50 μM): 6.2%; % M3 inhibition ([2]; peptide 100 μM): 15.1%
CCCCCCCCCCCCCC(=O)N[C@@H](CCCNC(=N)N)C(=O)N[C@@H](CCSC)C(=O)N[C@@H](Cc1ccc(O)cc1)C(=O)N[C@@H](CCCCN)C(=O)N[C@@H](CCSC)C(=O)N[C@@H](CCSC)C(=O)N[C@@H](C)C(=O)NCC(=O)N[C@@H](CCSC)C(=O)N[C@@H](Cc1ccc(O)cc1)C(=O)N[C@@H](CC(C)C)C(=O)N[C@@H](CCCNC(=N)N)C(N)=O [Seq. ID No. 6 Myristoyl] (Myristoyl-RMYKMMAGMYLR-NH2)	4.26	14.8	56.4	92.1	-20.2	54.7		
CCCCCCCCCCCCCCCC(=O)N[C@@H](Cc1c[nH]c2ccccc12)C(=O)N[C@@H](CCSC)C(=O)N[C@@H](Cc1ccccc1)C(=O)N[C@@H](CC(C)C)C(=O)N[C@@H](CCCCN)C(N)=O [Seq. ID No. 5 Palmitoyl (TFA salt)] (Palmitoyl-WMFLK-NH2)								effect on cell proliferation [4]: did not affect cell proliferation
CCCCCCCCCCCCCCCC(=O)N[C@@H](Cc1c[nH]c2ccccc12)C(=O)N[C@@H](CCSC)C(=O)N[C@@H](CCCNC(=N)N)C(=O)N[C@@H](CC(C)C)C(N)=O [Seq. ID No. 1 Palmitoyl (TFA salt)] (Palmitoyl-WMRL-NH2)								effect on cell proliferation [4]: did not affect cell proliferation
Seq. ID No. 6 Acetyl: Nt-acetyl RMYKMMAGMYLR, C terminus amidated (Ac-RMYKMMAGMYLR-NH2)							3.0	% M3 inhibition ([2]; peptide 50 μM): 26.4%; % M3 inhibition ([2]; peptide 100 μM): 32.5%
Seq. ID No. 6 Palmitoyl: Nt-palmitoyl RMYKMMAGMYLR, C terminus amidated (Palmitoyl-RMYKMMAGMYLR-NH2)							34.5	
